These results are taken from US5665721A, “Heterocyclic substituted cyclopentane compounds” (Abbott Laboratories, priority 1995, dated 1997).

What is called IC50 is the midpoint of a concentration-inhibition curve.

Sequence of adenosine kinase (Homo sapiens, UniProt P55263) (P55263 whole entry, species assumed): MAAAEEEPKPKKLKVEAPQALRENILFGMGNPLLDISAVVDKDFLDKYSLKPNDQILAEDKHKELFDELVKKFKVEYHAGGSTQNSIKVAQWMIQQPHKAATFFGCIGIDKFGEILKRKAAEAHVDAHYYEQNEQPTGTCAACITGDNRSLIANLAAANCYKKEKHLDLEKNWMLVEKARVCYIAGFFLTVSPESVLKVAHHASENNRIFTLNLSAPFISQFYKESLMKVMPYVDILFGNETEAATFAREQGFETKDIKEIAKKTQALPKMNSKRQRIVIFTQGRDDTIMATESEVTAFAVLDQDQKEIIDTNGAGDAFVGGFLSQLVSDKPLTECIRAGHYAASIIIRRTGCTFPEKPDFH

The first assay concerns the target adenosine kinase (Homo sapiens, UniProt P55263). As to the kind of experiment: In vitro inhibition of adenosine kinase activity. It counts as biochemical. As to conditions: Table 1, in vitro. From the text: The adenosine kinase to be inhibited can be located in vitro, in situ or in vivo. Where the adenosine kinase is located in vitro, adenosine kinase is contacted with the inhibitor compound, typically by adding the compound to an aqueous solution containing the enzyme, radiolabeled substrate adenosine, magnesium chloride and ATP. The enzyme can exist in intact cells or in isolated subcellular fractions containing the enzyme. The enzyme is then maintained in the presence of the inhibitor for a period of time and under suitable physiological conditions. Means for determining maintained times are well known in the art and depend inter alia on the concentrations of enzyme and the physiological conditions. Suitable physiological conditions are those necessary to maintain adenosine kinase viability and include temperature, acidity, tonicity and the like. Inhibition of adenosine kinase can be performed, by example, according to standard procedures well known in the art (Yamada et at., Comp. Biochem. Physiol. 1982, 71B: 367-372).
In vitro adenosine kinase activity can be measured using any of the standard procedures well known in the art. By way of example, cells containing adenosine kinase, such as IMR-32 human neuroblastoma cells, are cultured in the presence and absence of an inhibitor. Inhibition is measured as the ability to inhibit phosphorylation of endogenous or externally applied ^14 C-adenosine by these cells. The cells can be intact or broken. The specificity of adenosine kinase inhibitory activity is determined by studying the effects of inhibitors on adenosine A1 and A2a receptor binding, adenosine deaminase activity and adenosine transport.
Numerous inhibitor compounds of the present invention were tested in vitro and found to inhibit adenosine kinase activity. The results of some representative studies are shown below in Tables 1 and 2.
In turn, `CC(C)(C)OC(=O)N(C(=O)OC(C)(C)C)[C@H]1C[C@@H](n2cc(I)c3c(Cl)ncnc32)[C@H](O)[C@@H]1O` [drawing 14 (R4=Boc2N, R5=Cl, R6=I), N7-((1'R,2'S,3'R,4'S)-2',3'-dihydroxy-4'-(bis-t-butoxycarbonylamino)-cyclopentyl)-4-chloro-5-iodo pyrrolopyrimidine] displayed an IC50 above 1000 nM.

Turning to `CN[C@H]1C[C@@H](n2cc(C)c3c(Cl)ncnc32)[C@H](O)[C@@H]1O` [drawing 14 (R4=CH3NH, R5=Cl, R6=CH3), N7-((1'R,2'S,3'R,4'S)-2',3'-dihydroxy-4'-(methyl)amino-cyclopentyl)-4-chloro-5-methyl-pyrrolopyrimidine], the concentration for half-maximal inhibition (IC50) was 300 nM.

The molecule `N[C@H]1C[C@@H](n2cc(I)c3c(Cl)ncnc32)[C@H](O)[C@@H]1O` [drawing 14 (R4=H2N, R5=Cl, R6=I), N7-((1'R,2'S,3'R,4'S)-2',3'-dihydroxy-4'-amino-cyclopentyl)-4-chloro-5-iodo-pyrrolopyrimidine] yielded an IC50 of 0.035 nM.

Molecule `Nc1ncnc2c1c(I)cn2[C@@H]1C[C@H](N)[C@@H](O)[C@H]1O` [drawing 14 (R4=H2N, R5=NH2, R6=I), N7-((1'R,2'S,3'R,4'S)-2',3'-dihydroxy-4'-amino-cyclopentyl)-4-amino-5-iodo-pyrrolopyrimidine] registered a 50% inhibitory concentration (IC50) of 0.08 nM.

With `CC(C)(C)OC(=O)N[C@H]1C[C@@H](n2cc(I)c3c(N)ncnc32)[C@H](O)[C@@H]1O` [drawing 14 (R4=NHBoc, R5=NH2, R6=I), N7-((1'R,2'S,3'R,4'S)-2',3'-dihydroxy-4'-(t-butoxycarbonylamino)-cyclopentyl)-4-amino-5-iodo-pyrrolopyrimidine], 15 nM corresponded to half-maximal inhibition (IC50).

The assay is the same for the next values; noted with them: Table 2, in vitro.
`CC(=O)O[C@@H]1[C@H](OC(C)=O)[C@@H](OC(C)=O)C[C@H]1n1cc(-c2ccccc2)c2c(Cl)ncnc21` [drawing 16 (R5=Cl, R6=Ph), N7-((1'R,2'S,3'R,4'S)-2',3',4'-triacetoxycyclopentyl)-4-chloro-5-phenyl-pyrrolopyrimidine]: the half-maximal inhibitory concentration (IC50) was above 100000 nM.

In turn, `CC(=O)O[C@@H]1[C@H](OC(C)=O)[C@@H](OC(C)=O)C[C@H]1n1cc(C#Cc2ccccc2)c2c(C#Cc3ccccc3)ncnc21` [drawing 16 (R5=PhCC, R6=PhCC), N7-((1'R,2'S,3'R,4'S)-2',3',4'-triacetoxycyclopentyl)-4,5-bis-phenylacetylenyl-pyrrolopyrimidine] gave an IC50 above 10000 nM.

Turning to `CC(=O)N[C@H]1C[C@@H](n2cc(I)c3c(Cl)ncnc32)[C@H](OC(C)=O)[C@@H]1OC(C)=O` [drawing 17 (R5=Cl)], the IC50 was above 10000 nM.

For `O=C(N[C@H]1C[C@@H](n2cc(I)c3c(Cl)ncnc32)[C@H](O)[C@@H]1O)C(F)(F)F` [drawing 18 (R5=Cl, R=CF3CO), N7-((1'R,2'S,3'R,4'S)-2',3'-dihydroxy-4'-(trifluoroacetyl)amino-cyclopentyl)-4-chloro-5-iodo-pyrrolopyrimidine], half-maximal inhibition (IC50) required 110 nM.

`CC(=O)N[C@H]1C[C@@H](n2cc(I)c3c(Cl)ncnc32)[C@H](O)[C@@H]1O` [drawing 18 (R5=Cl, R=CH3CO), N7-((1'R,2'S,3'R,4'S)-2',3'-dihydroxy-4'-(acetyl)amino-cyclopentyl)-4-chloro-5-iodo-pyrrolopyrimidine]: the IC50 stood at 350 nM.

The molecule `CC(=O)N[C@H]1C[C@@H](n2cc(I)c3c(N)ncnc32)[C@H](O)[C@@H]1O` [drawing 18 (R5=NH2, R=CH3CO), N7-((1'R,2'S,3'R,4'S)-2',3'-dihydroxy-4'-(acetyl)amino-cyclopentyl)-4-amino-5-iodo-pyrrolopyrimidine] displayed a 50% inhibitory concentration (IC50) of 160 nM.

The molecule `CC(C)(C)OC(=O)N[C@H]1C[C@@H](n2cc(I)c3c(N)ncnc32)[C@H](O)[C@@H]1O` [drawing 18 (R5=NH2, R=NHBoc), N7-((1'R,2'S,3'R,4'S)-2',3'-dihydroxy-4'-(t-butoxycarbonylamino)-cyclopentyl)-4-amino-5-iodo-pyrrolopyrimidine] had a half-maximal inhibitory concentration (IC50) of 150 nM.

`O=C(N[C@H]1C[C@@H](n2cc(I)c3c(O)ncnc32)[C@H](O)[C@@H]1O)C(F)(F)F` [drawing 18 (R5=OH, R=CF3CO), N7-((1'R,2'S,3'R,4'S)-2',3'-dihydroxy-4'-(trifluoroacetyl)amino-cyclopentyl)-4-hydroxy-5-iodo-pyrrolopyrimidine] came in with an IC50 of 200 nM.

In the case of `CC(=O)N[C@H]1C[C@@H](n2cc(I)c3c(Cl)ncnc32)[C@@H]2OC(=O)O[C@@H]21` [drawing 21 (R=CH3CO, R5=Cl), N7-((1'R,2'S,3'R,4'S)-2',3'--O-(2"-oxo-1",3"-dioxalyl)-4'-(acetyl)amino-cyclopentyl)-4-chloro-5-iodo-pyrrolopyrimidine], half-maximal inhibition (IC50) was put at 6300 nM.

With `CC(=O)N[C@H]1C[C@@H](n2cc(I)c3c(O)ncnc32)[C@@H]2OC(=O)O[C@@H]21` [drawing 21 (R=CH3CO, R5=OH), N7-((1'R,2'S,3'R,4'S)-2',3'--O-(2"-oxo-1",3"-dioxalyl)-4'-(acetyl)amino-cyclopentyl)-4-hydroxy-5-iodo-pyrrolopyrimidine], the concentration for half-maximal inhibition (IC50) turned out to be 4000 nM.

`N[C@H]1C[C@@H](n2cc(I)c3c(Cl)ncnc32)[C@@H]2OC(=O)O[C@@H]21` [drawing 21 (R=H, R5=Cl), N7-((1'R,2'S,3'R,4'S)-2',3'--O-(2"-oxo-1",3"-dioxalyl)-4'-amino-cyclopentyl)-4-chloro-5-iodo-pyrrolopyrimidine] came in with an IC50 of 2.5 nM.

Another assay concerns adenosine kinase.
Assay: not given
As to conditions: literature; cited from earlier work.
Consider `NC[C@H]1O[C@@H](n2cnc3c(N)ncnc32)[C@H](O)[C@@H]1O` [5'-amino,5'-deoxyadenosine], for which the “reported to inhibit adenosine kinase (in words)” value was “most potent”.

As for `C[C@H]1O[C@@H](n2cc(I)c3c(N)ncnc32)[C@H](O)[C@@H]1O` [5'-deoxy-5-iodotubercidin], the “reported to inhibit adenosine kinase (in words)” value is “most potent”.

With `Nc1ncnc2c1c(I)cn2[C@@H]1O[C@H](CO)[C@@H](O)[C@H]1O` [5-iodotubercidin], the “reported to inhibit adenosine kinase (in words)” value is given as “most potent”.
